Data from PubChem BioAssay AID330 (DTP/NCI, 2004).
Where “and” joins values, the source holds several entries; their conditions need not be identical. Equal entries are not always repeated. Toxic doses and inconclusive results are not listed. Rule for the calls: active = survival T/C of 150% or more; inactive = T/C below 125% in these data. Peptide text beside a SMILES is read from it.

Test system: P388 leukemia ip, CD2F1 mice, survival T/C
Experiment: NCI In Vivo Anticancer Drug Screen. Data for tumor model P388 Leukemia (intraperitoneal) in CD2F1 (CDF1) mice
Details: endpoint: median survival time, higher = longer survival
In short: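 Mice carrying the transplanted tumor received test compound or vehicle. Survival was recorded in each group, and the value is the treated-group measurement divided by that of the vehicle-treated control group.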

[1] = dose: 50.0 mg/kg/injection, schedule: Q01DX009 (ip), vehicle: Klucel (hydroxypropylcellulose) (HPC)
[2] = dose: 100.0 mg/kg/injection, schedule: Q01DX009 (ip), vehicle: Klucel (hydroxypropylcellulose) (HPC)
[3] = dose: 200.0 mg/kg/injection, schedule: Q01DX009 (ip), vehicle: Klucel (hydroxypropylcellulose) (HPC)
[4] = dose: 6.25 mg/kg/injection, schedule: Q01DX009 (ip), vehicle: Klucel (hydroxypropylcellulose) (HPC)
[5] = dose: 60.0 mg/kg/injection, schedule: Q01DX005 (ip), vehicle: Klucel (hydroxypropylcellulose) (HPC)
[6] = dose: 15.0 mg/kg/injection, schedule: Q01DX005 (ip), vehicle: saline with Tween-80
[7] = dose: 30.0 mg/kg/injection, schedule: Q01DX005 (ip), vehicle: saline with Tween-80
[8] = dose: 60.0 mg/kg/injection, schedule: Q01DX005 (ip), vehicle: saline with Tween-80
[9] = dose: 12.5 mg/kg/injection, schedule: Q01DX009 (ip), vehicle: saline
[10] = dose: 25.0 mg/kg/injection, schedule: Q01DX009 (ip), vehicle: saline
[11] = dose: 50.0 mg/kg/injection, schedule: Q01DX009 (ip), vehicle: saline
[12] = dose: 100.0 mg/kg/injection, schedule: Q01DX009 (ip), vehicle: saline

Measured: T/C

Clc1ccc2nsnc2c1
inactive: dose: 6.25 mg/kg/injection, schedule: Q01DX009 (ip), vehicle: saline with Tween-80 101 % of control | dose: 12.5 mg/kg/injection, schedule: Q01DX009 (ip), vehicle: saline with Tween-80 95 % of control | dose: 25.0 mg/kg/injection, schedule: Q01DX009 (ip), vehicle: saline with Tween-80 95 % of control | [1] 101 % of control | dose: 50.0 mg/kg/injection, schedule: Q01DX009 (ip), vehicle: saline with Tween-80 104 % of control | [2] 107 % of control | dose: 100.0 mg/kg/injection, schedule: Q01DX009 (ip), vehicle: saline with Tween-80 104 % of control | [3] 108 % of control | dose: 200.0 mg/kg/injection, schedule: Q01DX009 (ip), vehicle: saline with Tween-80 95 % of control

COc1cc2c3cc1Oc1c(OC)c(OC)cc4c1C(Cc1ccc(O)c(c1)-c1cc(ccc1OC)CC3N(C)CC2)N(C)CC4 (centres undefined)
inactive: dose: 0.78 mg/kg/injection, schedule: Q01DX009 (ip), vehicle: Klucel (hydroxypropylcellulose) (HPC) 106 % of control | dose: 1.56 mg/kg/injection, schedule: Q01DX009 (ip), vehicle: Klucel (hydroxypropylcellulose) (HPC) 87 % of control | dose: 3.13 mg/kg/injection, schedule: Q01DX009 (ip), vehicle: Klucel (hydroxypropylcellulose) (HPC) 104 % of control | [4] 104 % of control

N#CC1=C(NC(N)=O)CCCC1
inactive: [5] 106 % of control | dose: 120.0 mg/kg/injection, schedule: Q01DX005 (ip), vehicle: Klucel (hydroxypropylcellulose) (HPC) 100 % of control | dose: 240.0 mg/kg/injection, schedule: Q01DX005 (ip), vehicle: Klucel (hydroxypropylcellulose) (HPC) 106 % of control

O=C(/C=C/c1cccs1)c1ccc(Nc2ccnc3cc(Cl)ccc23)cc1
inactive: dose: 100.0 mg/kg/injection, schedule: Q01DX001 (ip), vehicle: saline with Tween-80 94 % of control | dose: 200.0 mg/kg/injection, schedule: Q01DX001 (ip), vehicle: saline with Tween-80 98 % of control | dose: 400.0 mg/kg/injection, schedule: Q01DX001 (ip), vehicle: saline with Tween-80 94 % of control

NC(Cc1cnc[nH]1)C(=O)N1CCCC1C(=O)NC(CCC(=O)O)C(=O)O (stereo not drawn) (H-His-Pro-Glu-OH; configuration not given here)
inactive: dose: 7.5 mg/kg/injection, schedule: Q01DX009 (ip), vehicle: saline 102 % of control | dose: 15.0 mg/kg/injection, schedule: Q01DX009 (ip), vehicle: saline 100 % of control | dose: 30.0 mg/kg/injection, schedule: Q01DX009 (ip), vehicle: saline 109 % of control

COc1ccc(NC(=O)C#N)cc1
inactive: dose: 7.5 mg/kg/injection, schedule: Q01DX005 (ip), vehicle: saline with Tween-80 105 % of control | [6] 113 % of control

CCN(CC)CCCC(C)Nc1nccc2cccc(Cl)c12 (centres undefined)
inactive: dose: 50.0 mg/kg/injection, schedule: Q01DX005 (ip), vehicle: saline 104 % of control | dose: 100.0 mg/kg/injection, schedule: Q01DX005 (ip), vehicle: saline 104 % of control

BrC1c2ccccc2-c2nc3ccccc3nc21 (centres undefined)
inactive: dose: 12.5 mg/kg/injection, schedule: Q01DX005 (ip), vehicle: Klucel (hydroxypropylcellulose) (HPC) 112 % of control | dose: 25.0 mg/kg/injection, schedule: Q01DX005 (ip), vehicle: Klucel (hydroxypropylcellulose) (HPC) 99 % of control | dose: 50.0 mg/kg/injection, schedule: Q01DX005 (ip), vehicle: Klucel (hydroxypropylcellulose) (HPC) 103 % of control and 115 % of control

O=Cc1c(-c2ccc(Cl)cc2)nc2sccn12
inactive: dose: 100.0 mg/kg/injection, schedule: Q01DX001 (ip), vehicle: Klucel (hydroxypropylcellulose) (HPC) 93 % of control | dose: 200.0 mg/kg/injection, schedule: Q01DX001 (ip), vehicle: Klucel (hydroxypropylcellulose) (HPC) 96 % of control | dose: 400.0 mg/kg/injection, schedule: Q01DX001 (ip), vehicle: Klucel (hydroxypropylcellulose) (HPC) 93 % of control

Nc1ccc(C2=Cc3ccc(N)cc3S2(=O)=O)cc1
inactive: dose: 100.0 mg/kg/injection, schedule: Q04DX002 (ip), vehicle: saline 99 % of control | dose: 200.0 mg/kg/injection, schedule: Q04DX002 (ip), vehicle: saline 99 % of control | dose: 400.0 mg/kg/injection, schedule: Q04DX002 (ip), vehicle: saline 101 % of control

C[N+]1(Cc2ccccc2)CCC(O)(C(=O)c2ccccc2)CC1 (centres undefined)
inactive: [6] 98 % of control | [7] 100 % of control | [8] 104 % of control and 86 % of control

O=S1(=O)OC2(c3ccccc31)c1cc(Br)c(O)c(O)c1Oc1c2cc(Br)c(O)c1O
inactive: [9] 105 % of control | [10] 103 % of control | [11] 88 % of control

O=C1NC(=O)C23CC=CCC12CCCC3 (centres undefined)
inactive: [1] 101 % of control | [2] 100 % of control | [3] 100 % of control

CC(C)(C)C(C(=O)O)C(=O)O
inactive: [9] 101 % of control | [10] 99 % of control | [11] 96 % of control | [12] 99 % of control

Cc1ccnc2cc(N(C)C)ccc12
inactive: dose: 7.5 mg/kg/injection, schedule: Q01DX005 (ip), vehicle: Klucel (hydroxypropylcellulose) (HPC) 101 % of control | dose: 15.0 mg/kg/injection, schedule: Q01DX005 (ip), vehicle: Klucel (hydroxypropylcellulose) (HPC) 98 % of control | dose: 30.0 mg/kg/injection, schedule: Q01DX005 (ip), vehicle: Klucel (hydroxypropylcellulose) (HPC) 99 % of control | [5] 92 % of control

NC(N)=N/N=C/C(Cl)Cl
inactive: [10] 109 % of control | dose: 25.0 mg/kg/injection, schedule: Q04DX003 (ip), vehicle: saline 100 % of control | [11] 100 % of control | dose: 50.0 mg/kg/injection, schedule: Q04DX003 (ip), vehicle: saline 100 % of control | [12] 118 % of control | dose: 100.0 mg/kg/injection, schedule: Q04DX003 (ip), vehicle: saline 100 % of control and 95 % of control

CSc1c(N(C)C)c(=O)c1=S
inactive: [6] 99 % of control | [7] 108 % of control | [8] 107 % of control

C#CC1(O)CC2c3ccc(OC)cc3CCC2(C)C1 (centres undefined)
inactive: [4] 117 % of control | dose: 12.5 mg/kg/injection, schedule: Q01DX009 (ip), vehicle: Klucel (hydroxypropylcellulose) (HPC) 105 % of control | dose: 25.0 mg/kg/injection, schedule: Q01DX009 (ip), vehicle: Klucel (hydroxypropylcellulose) (HPC) 112 % of control

COC(=O)C(=O)c1c(C(=O)OC)nc2nnc(N)n2c1-c1ccc(OC)cc1
inactive: [8] 100 % of control | dose: 120.0 mg/kg/injection, schedule: Q01DX005 (ip), vehicle: saline with Tween-80 107 % of control | dose: 240.0 mg/kg/injection, schedule: Q01DX005 (ip), vehicle: saline with Tween-80 96 % of control

Cc1c2cc[n+](C)cc2c(C)c2c1[nH]c1ccccc12
inactive: dose: 1.25 mg/kg/injection, schedule: Q04DX002 (ip), vehicle: water 103 % of control and 117 % of control | dose: 2.5 mg/kg/injection, schedule: Q04DX002 (ip), vehicle: water 114 % of control and 121 % of control | dose: 12.5 mg/kg/injection, schedule: Q04DX002 (ip), vehicle: distilled water + Tween-80 122 % of control

O=C(NC(=O)C(F)(F)C(F)(F)F)Nc1cccc(F)c1
inactive: [2] 106 % of control | [3] 100 % of control

COC(=O)CC1(O)C=C(C)C(=O)c2ccccc21 (centres undefined)
inactive: dose: 25.0 mg/kg/injection, schedule: Q01DX005 (ip), vehicle: saline with Tween-80 100 % of control | dose: 50.0 mg/kg/injection, schedule: Q01DX005 (ip), vehicle: saline with Tween-80 101 % of control | dose: 100.0 mg/kg/injection, schedule: Q01DX005 (ip), vehicle: saline with Tween-80 100 % of control | dose: 200.0 mg/kg/injection, schedule: Q01DX005 (ip), vehicle: saline with Tween-80 100 % of control | dose: 400.0 mg/kg/injection, schedule: Q01DX005 (ip), vehicle: saline with Tween-80 101 % of control

CCOC(=O)CNC(=O)Nc1c(C)n(C)n(-c2ccccc2)c1=O
inactive: [11] 103 % of control | [12] 100 % of control | dose: 200.0 mg/kg/injection, schedule: Q01DX009 (ip), vehicle: saline 97 % of control

O.O.O=C(O)C(=O)O.O=C(O)C(=O)O.[Rh]
inactive: dose: 25.0 mg/kg/injection, schedule: Q04DX003 (ip), vehicle: water 94 % of control | dose: 50.0 mg/kg/injection, schedule: Q04DX003 (ip), vehicle: water 95 % of control | dose: 100.0 mg/kg/injection, schedule: Q04DX003 (ip), vehicle: water 100 % of control | dose: 200.0 mg/kg/injection, schedule: Q04DX003 (ip), vehicle: water 100 % of control
